One may read the IC50 as the midpoint of a concentration-inhibition curve. High values mean lower potency, low ones higher potency. By Ki is commonly meant the dissociation constant of the complex between target and ligand, obtained from inhibition or displacement.

Bridge positions count the residues as written; N and C are the ends. Peptide text beside a SMILES is read from it.

This assay has as its target porcine pancreatic elastase (Sus scrofa, UniProt P00772). The assay can be described thus: Elastase inhibitory activity of peptides (AAApNA hydrolysis; IC50, Ki, residual activity). Type of assay: biochemical. The settings on record: for IC50 / Residual activity of elastase: elastase 0.5 μM, AAApNA 1 mM; for Ki: read-out: Ki. The protocol:
The inhibition constants of various synthetic active peptide inhibitors (molecular scaffolds) against seine proteases were measured. The substrates N-succinyl-Ala-Ala-Pro-Phe-p-nitroaniline (AAPFpNA), Nα—Benzoyl-L-arginine-4-nitroaniline hydrochloride (BApNA) and N-succinyl-[…] (AAApNA) are used in competitive binding reaction to determine the inhibitory activities against α-chymotrypsin, bovine trypsin, and porcine pancreatic elastase, respectively. Experiments for α-chymotrypsin and bovine trypsin inhibition were measured in 20 mM CaCl2, 50 mM Tris-HCl buffer (pH 7.8), and that for porcine elastase inhibition was measured in 50 mM Tris-HCl buffer (pH 8.0). The concentration of the peptide was measured using optical density (OD) at 280 nm. The Michaelis constant (Km) of the enzyme hydrolysis substrate is calculated from the initial rate of substrate hydrolysis at 405 nm. The absorbance value of the substrate was measured at 405 nm after complete hydrolysis. All data were processed using nonlinear regression.
• (1) Added a total 198 μL of reaction buffer (20 mM CaCl2, 50 mM Tris-HCl (pH 8.0)) into the 96 well plate, followed by preheating at 37° C. for 15 min. Then added 2 μL of different concentrations of substrates (pNA, dissolved in DMSO), and mixed by centrifugation at 500 rpm for 1 min. Finally, the plate was incubated at 37° C. for 30 min, and the absorbance value at 405 nm was measured. In the 200 μL of reaction system, the final concentrations of pNA were 0, 0.025, 0.05, 0.075, 0.1, 0.125, 0.15, 0.175, and 0.2 mM, respectively. Make three repetitions for each concentration and plot the OD405 m value with pNA concentration to obtain the standard curve. • (2) Added a total 190 μL of reaction buffer (20 mM CaCl2, 50 mM Tris-HCl (pH 8.0)) and 8 μL of 4.375 μM elastase into the 96 well plate, followed by preheating at 37° C. for 5 min. Then added 2 μL of different concentrations of substrates (AAApNA, dissolved in DMSO), and mixed by centrifugation at 500 rpm for 1 min. Finally, the plate was incubated at 37° C. for 30 min, and the absorbance value at 405 nm was measured. In the 200 μL of reaction system, the final concentrations of AAApNA were 0, 0.125, 0.166, 0.2, 0.25, 0.33, 0.6, 0.75, and 1.25 mM, respectively. Make three repetitions for each concentration and plot the OD405 nm value with time to obtain the corresponding curve. Divide the slope of the curve by the slope of the standard curve and the enzyme concentration to obtain the initial velocity V0 (mM/(min*mM protein). Plot the initial velocity V0 with the concentration of substrate AAApNA using Prism software, and the Michaelis constant Km value of elastase hydrolyzing AAApNA was obtained.
• (1) Added a total 190 μL of different concentrations of peptides (ECs) against elastase and reaction buffer (20 mM CaCl2, 50 mM Tris-HCl buffer (pH 8.0)) into the pre-cold 96 well plate, followed by preheating at 37° C. for 5 min and centrifugated at 500 rpm for 1 min and allowed to stand for 4 minutes. Then added 8 μL of 12.5 μM elastase and incubated at 37° C. for 10 min and centrifugated at 500 rpm for 1 min and allowed to stand for 9 minutes. Finally, added 2 μL of 100 mM AAApNA, and mixed by centrifugation at 500 rpm for 1 min. The plate was incubated at 37° C. for 60 min, and the absorbance value at 405 nm was measured. Three repetitions were made, and only reaction buffer and substrate were added in the blank control as the minimum absorption value (Min OD405 nm); Only reaction buffer, enzyme and substrate were added in the negative control as the maximum absorption value (Max OD405 nm). • (2) In the 200 μL of reaction system, the final concentrations of elastase and AAApNA were 0.5 μM and 1 mM, respectively. • (3) Data statistics
Residual activity of enzyme (%)=(1−(Max OD405 nm−Sample OD405 nm)/(Max OD405 nm−Min OD405 nm))*100 […]

porcine pancreatic elastase, sequence (P00772 27-266): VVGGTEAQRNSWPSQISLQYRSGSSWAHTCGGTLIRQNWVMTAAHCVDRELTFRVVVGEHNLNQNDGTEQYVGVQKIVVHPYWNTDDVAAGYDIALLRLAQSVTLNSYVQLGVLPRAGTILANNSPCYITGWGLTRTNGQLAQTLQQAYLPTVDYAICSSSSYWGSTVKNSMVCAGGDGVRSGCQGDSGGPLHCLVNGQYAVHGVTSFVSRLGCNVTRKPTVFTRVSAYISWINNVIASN

Compound `CC[C@H](C)[C@H](N)C(=O)N[C@H]1CSSC[C@@H](C(=O)N[C@H](C(=O)O)C(C)C)NC(=O)[C@H](CCC(N)=O)NC(=O)[C@H](C)NC(=O)[C@@H]2CCCN2C(=O)[C@H]([C@@H](C)CC)NC(=O)[C@H](CO)NC(=O)[C@H](CC(C)C)NC(=O)[C@H]([C@@H](C)O)NC1=O` [EC13] (H-ICTLSIPAQCV-OH; disulfide 2-10; N-terminus and C-terminus assumed) showed an IC50 of over 50 µM.
The compound `CC[C@H](C)[C@@H]1NC(=O)CNC(=O)[C@@H](N)CSSC[C@@H](C(=O)N[C@@H](CCC(N)=O)C(=O)O)NC(=O)[C@H]([C@@H](C)CC)NC(=O)[C@@H]2CCCN2C(=O)[C@@H]2CCCN2C(=O)[C@H]([C@@H](C)CC)NC(=O)[C@H](CO)NC(=O)[C@H](C)NC(=O)[C@H]([C@@H](C)O)NC(=O)[C@H](CCC(N)=O)NC1=O` [EC39] (H-CGIQTASIPPICQ-OH; disulfide 1-12) returned an IC50 of over 50 µM.
The same measure, in the same setting: with `CC[C@H](C)[C@@H]1NC(=O)CNC(=O)[C@@H](N)CSSC[C@@H](C(=O)N[C@@H](CCC(N)=O)C(=O)O)NC(=O)[C@H]([C@@H](C)CC)NC(=O)[C@@H]2CCCN2C(=O)[C@@H]2CCCN2C(=O)[C@H]([C@@H](C)CC)NC(=O)[C@H](CO)NC(=O)[C@H](C)NC(=O)[C@H]([C@@H](C)O)NC(=O)[C@H](CO)NC1=O` [EC34] (H-CGISTASIPPICQ-OH; disulfide 1-12) the figure was over 50 µM.
Regarding `CC[C@H](C)[C@H](N)C(=O)N[C@H]1CSSC[C@@H](C(=O)N[C@@H](CCC(N)=O)C(=O)O)NC(=O)[C@H](CCC(N)=O)NC(=O)[C@@H]2CCCN2C(=O)[C@@H]2CCCN2C(=O)[C@H]([C@@H](C)CC)NC(=O)[C@H](CO)NC(=O)[C@H](C)NC(=O)[C@H]([C@@H](C)O)NC1=O` [EC19] (H-ICTASIPPQCQ-OH; disulfide 2-10; N-terminus and C-terminus assumed), the Ki came out at 0.33 µM. In addition, the “Residual activity of elastase” value (peptide 0.001 μM) stood at 99.9 ± 0.5%. For the same compound, the “Residual activity of elastase” value (peptide 0.01 μM) is reported as 99.4 ± 0.1%. The “Residual activity of elastase” value (peptide 0.1 μM) is on record as 96.1 ± 0.9%. Moreover, the “Residual activity of elastase” value (peptide 0.5 μM) was found to be 81.2 ± 4.1%. Besides, under “peptide 1 μM”, the “Residual activity of elastase” value is on record as 52.1 ± 1.8%. For the same compound, the “Residual activity of elastase” value (peptide 2 μM) is recorded as 29.8 ± 0.8%. Besides, the “Residual activity of elastase” value (peptide 4 μM) was determined as 15.5 ± 0.3%. The “Residual activity of elastase” value (peptide 10 μM) was found to be 5.4 ± 0.3%. In addition, the “Residual activity of elastase” value (peptide 100 μM) is on record as 0.2 ± 0.1%. Moreover, the “Residual activity of elastase” value (peptide 1000 μM) is on record as 0.0 ± 0.0%.
Consider `CC[C@H](C)[C@@H]1NC(=O)[C@H](CO)NC(=O)[C@H](C)NC(=O)[C@H]([C@@H](C)O)NC(=O)[C@H](C)NC(=O)[C@H](CC(C)C)NC(=O)CNC(=O)[C@@H](N)CSSC[C@@H](C(=O)N[C@@H](Cc2ccc(O)cc2)C(=O)O)NC(=O)[C@H](CCC(N)=O)NC(=O)[C@@H]2CCCN2C(=O)[C@@H]2CCCN2C1=O` [EC3] (H-CGLATASIPPQCY-OH; disulfide 1-12; N-terminus and C-terminus assumed), for which the IC50 is over 50 µM.
With `CC[C@H](C)[C@@H]1NC(=O)[C@@H]2CCCN2C(=O)[C@@H]2CCCN2C(=O)[C@H]([C@@H](C)CC)NC(=O)[C@H](CO)NC(=O)[C@H](C)NC(=O)[C@H]([C@@H](C)O)NC(=O)[C@H](CCC(=O)O)NC(=O)[C@H](CCCNC(=N)N)NC(=O)CNC(=O)[C@@H](N)CSSC[C@@H](C(=O)N[C@@H](CCC(N)=O)C(=O)O)NC1=O` [EC8] (H-CGRETASIPPICQ-OH; disulfide 1-12; N-terminus and C-terminus assumed), the IC50 was over 50 µM.
In the case of `CC[C@H](C)[C@@H]1NC(=O)[C@@H]2CCCN2C(=O)[C@@H]2CCCN2C(=O)[C@H]([C@@H](C)CC)NC(=O)[C@H](CO)NC(=O)[C@H](CC(C)C)NC(=O)[C@H]([C@@H](C)O)NC(=O)[C@H](C)NC(=O)[C@H](CC(C)C)NC(=O)CNC(=O)[C@@H](N)CSSC[C@@H](C(=O)N[C@@H](CCC(N)=O)C(=O)O)NC1=O` [EC7] (H-CGLATLSIPPICQ-OH; disulfide 1-12; N-terminus and C-terminus assumed), the “inhibitory activity against elastase (in words)” value is “weaker inhibitory activity”.
With `CC[C@H](C)[C@@H]1NC(=O)[C@H](CO)NC(=O)[C@H](C)NC(=O)[C@H]([C@@H](C)O)NC(=O)[C@H](CCC(=O)O)NC(=O)[C@H](CCCNC(=N)N)NC(=O)CNC(=O)[C@@H](N)CSSC[C@@H](C(=O)N[C@@H](CCCCN)C(=O)O)NC(=O)[C@H](CCC(N)=O)NC(=O)[C@@H]2CCCN2C(=O)[C@@H]2CCCN2C1=O` [EC9] (H-CGRETASIPPQCK-OH; disulfide 1-12; N-terminus and C-terminus assumed), the IC50 is over 50 µM.
`CC[C@H](C)[C@@H]1NC(=O)[C@@H]2CCCN2C(=O)[C@@H]2CCCN2C(=O)[C@H]([C@@H](C)CC)NC(=O)[C@H](CO)NC(=O)[C@H](C)NC(=O)[C@H]([C@@H](C)O)NC(=O)[C@H](C)NC(=O)[C@H](CC(C)C)NC(=O)CNC(=O)[C@@H](N)CSSC[C@@H](C(=O)N[C@@H](CCC(N)=O)C(=O)O)NC1=O` [EC6] (H-CGLATASIPPICQ-OH; disulfide 1-12; N-terminus and C-terminus assumed) registered an IC50 of over 50 µM.
For `CC(C)C[C@H](N)C(=O)N[C@H]1CSSC[C@@H](C(=O)N[C@@H](CCCNC(=N)N)C(=O)O)NC(=O)[C@H]([C@@H](C)O)NC(=O)[C@@H]2CCCN2C(=O)[C@@H]2CCCN2C(=O)[C@H](CC(N)=O)NC(=O)[C@H](CO)NC(=O)[C@H](C)NC(=O)[C@H]([C@@H](C)O)NC1=O` [EC28] (H-LCTASNPPTCR-OH; disulfide 2-10), the IC50 was over 50 µM.
Turning to `CC[C@H](C)[C@@H]1NC(=O)[C@H](CO)NC(=O)[C@H](C)NC(=O)[C@H]([C@@H](C)O)NC(=O)[C@@H](NC(=O)[C@H](CC(C)C)NC(=O)CNC(=O)CNC(=O)[C@@H](NC(=O)[C@@H]2CCCN2C(=O)[C@@H]2CCCN2C(=O)[C@@H](NC(=O)[C@H](CC(=O)O)NC(=O)[C@H](C)NC(=O)CNC(=O)[C@@H](N)CCC(N)=O)[C@@H](C)O)C(C)C)CSSC[C@@H](C(=O)N[C@@H](Cc2ccc(O)cc2)C(=O)O)NC(=O)[C@H](CCC(N)=O)NC(=O)[C@@H]2CCCN2C(=O)[C@@H]2CCCN2C1=O` [EC49] (H-QGADTPPVGGLCTASIPPQCY-OH; disulfide 12-20; N-terminus and C-terminus assumed), the inhibitory constant (Ki) came to 0.28 µM.
With `CC[C@H](C)[C@@H]1NC(=O)[C@H](CO)NC(=O)[C@H](C)NC(=O)[C@H]([C@@H](C)O)NC(=O)[C@@H](NC(=O)[C@H](CC(C)C)NC(=O)CNC(=O)CNC(=O)[C@H](CC(=O)O)NC(=O)[C@H](CCC(=O)O)NC(=O)[C@@H](NC(=O)[C@H](C)NC(=O)[C@H](CC(N)=O)NC(=O)CNC(=O)[C@H](CC(N)=O)NC(=O)[C@@H](N)CO)C(C)C)CSSC[C@@H](C(=O)N[C@@H](Cc2ccc(O)cc2)C(=O)O)NC(=O)[C@H](CCC(N)=O)NC(=O)[C@@H]2CCCN2C(=O)[C@@H]2CCCN2C1=O` [EC50] (H-SNGNAVEDGGLCTASIPPQCY-OH; disulfide 12-20; N-terminus and C-terminus assumed), the Ki was 0.28 µM.

The values above are taken from patent US20230416329A1, “A PEPTIDE WITH DISULFIDE BONDS AND INHIBITORY ACTIVITY AGAINST SERINE PROTEASES, DERIVED HYBRID PEPTIDES THEREOF, AND USES THEREOF” (INSTITUTE OF MATERIA MEDICA , CHINESE ACADEMY OF MEDICAL …, priority 2020, published 2023).
